In patent publication US7671176B2, “Opiate receptor polypeptide” (The Research Foundation of SUNY, priority 2001, dated 2010):

Test system: mu4 opiate receptor mRNA in mononuclear cells
Experiment: Real-time RT-PCR of mu4 mRNA expression in treated human mononuclear cells
Type: cell-based
Details: SNAP 1 μM
Procedure: Human heparinized whole blood cells obtained from volunteer blood donors (Long Island Blood Services; Melville, N.Y.) were immediately separated using the 1-Step Polymorphs (Accurate Chemical and Scientific Corporation, Westbury, N.Y.) gradient medium. Five mL of the heparinized blood was layered over 3.5 mL of polymorphs in a 14 mL round-bottom tube and centrifuged for 35 minutes at 500×g in a swinging-bucket rotor at 18° C. […] In addition, residual red blood cells were lysed using ACK lysing buffer (Current Protocol in Immunology). […] The cells were then treated with SNAP (1 μM), SNAP plus superoxide dismutase (SOD; 100 units/mL) (SIGMA St. Louis, Mo.), or SOD (100 U/mL), respectively.
After incubation, mononuclear cells were pelleted by centrifugation, and total RNA was isolated with the RNeasy Protect Mini Kit (Qiagen, Stanford, Calif.) following the directions supplied by the manufacturer. RNA was eluted with 50 μL of RNase-free water.
First strand cDNA synthesis was performed using random hexamers (GIBCO, BRL, Gaithesburg, Md.). 3 μg of total RNA isolated from human mononuclear cells were denatured at 95° C. and reverse transcribed at 40° C. for 1 hour using Superscript® II Rnase H-RT (GIBCO BRL, Gaithesburg Md.). Five μL of the RT product was used for the real-time PCR reaction.
Primers and probe specific for the mu4 opiate receptor sequence were designed as follows using the software Primer Express® (Applied Biosystems). […] The Taqman® probe was constructed with the 5′ reporter dye 6-carboxyfluorescein and a 3′ quencher dye 6-carboxy-tetramethyl-rhodoamine. The 2× universal master mix (Applied Biosystems) containing PCR buffer, MgCl2, dNTPs, and the thermal stable AmpliTaq Gold® DNA polymerase was used in the PCR reactions. In addition, 200 μM of reverse and forward primers, 100 μM Taqman® probe, 5 μL of RT product, and Rnase/DNase-free water were added to the master mix to a final volume of 50 μL. […] The PCR results were analyzed with the GeneAmp® 5700 SDS software (Applied Biosystems). […]

Structure (SMILES): CC(=O)NC(C(=O)O)C(C)(C)SN=O (racemic) [SNAP, S-nitroso-N-acetyl-DL-penicillamine]
- mu4 mRNA expression (after 6 hours of treatment, p=0.029 vs control): 8±5.6 relative mRNA level
- mu4 mRNA expression (after 24 hours of treatment, n=1): 10.5 relative mRNA level
- mu4 mRNA expression (treated for 30 minutes, SOD 100 units/mL, nontreated cells 1.0): 0.05 relative mRNA level
